The supplement of paper PMC10307832

Key:
Test in all cases: relative viability (nuclei count vs DMSO), 5 days (fraction); higher = more cells survive
Obatoclax + Crizotinib = compound: COC1=CC(c2cc3ccccc3[nH]2)=N/C1=C\c1[nH]c(C)cc1C [Obatoclax] + C[C@@H](Oc1cc(-c2cnn(C3CCNCC3)c2)cnc1N)c1c(Cl)ccc(F)c1Cl [Crizotinib] (partner 1 µM)
Outline: (§1)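 Relative viability was taken as the ratio of nuclei in treated wells to nuclei in vehicle wells. Lung cancer cell lines in 1536-well plates received compounds by pin tool one day after seeding, either one drug alone or a fixed anchor-drug dose plus five library-drug doses (not always all listed) in √10 steps. Nuclei were counted on 4× images after 5 days of treatment, and values are medians of duplicate plates.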

[1] = compound: CC1=CC(=NN1)NC2=CC(=NC(=N2)/C=C/C3=CC=CC=C3)N4CCN(CC4)C + CC(C)C[C@H](NC(=O)[C@H](Cc1ccccc1)NC(=O)c1cnccn1)B(O)O [Bortezomib] (partner 0.002 µM)
Outline: as §1

Bortezomib + Phenformin = compound: CC(C)C[C@H](NC(=O)[C@H](Cc1ccccc1)NC(=O)c1cnccn1)B(O)O [Bortezomib] + N=C(N)NC(=N)NCCc1ccccc1 [Phenformin] (partner 250 µM)
Outline: as §1

Obatoclax + Palbociclib = compound: COC1=CC(c2cc3ccccc3[nH]2)=N/C1=C\c1[nH]c(C)cc1C [Obatoclax] + CC(=O)c1c(C)c2cnc(Nc3ccc(N4CCNCC4)cn3)nc2n(C2CCCC2)c1=O [Palbociclib] (partner 0.5 µM)
Outline: as §1

| Cell Line | relative viability (Obatoclax + Crizotinib; first compound 0.01 µM) | relative viability (Obatoclax + Crizotinib; first compound 0.03162 µM) | relative viability (Obatoclax + Crizotinib; first compound 0.1 µM) | relative viability (Obatoclax + Crizotinib; first compound 0.3162 µM) | relative viability (Obatoclax + Crizotinib; first compound 1 µM) | relative viability ([1]; first compound 0.08 µM) | relative viability ([1]; first compound 0.253 µM) | relative viability ([1]; first compound 0.8 µM) | relative viability ([1]; first compound 2.53 µM) | relative viability ([1]; first compound 8 µM) | relative viability (Bortezomib + Phenformin; first compound 0.0002 µM) | relative viability (Bortezomib + Phenformin; first compound 0.000632 µM) | relative viability (Bortezomib + Phenformin; first compound 0.002 µM) | relative viability (Bortezomib + Phenformin; first compound 0.006325 µM) | relative viability (Bortezomib + Phenformin; first compound 0.02 µM) | relative viability (Obatoclax + Palbociclib; first compound 0.01 µM) | relative viability (Obatoclax + Palbociclib; first compound 0.03162 µM) | relative viability (Obatoclax + Palbociclib; first compound 0.1 µM) | relative viability (Obatoclax + Palbociclib; first compound 0.3162 µM) | relative viability (Obatoclax + Palbociclib; first compound 1 µM) |
| --- | --- | --- | --- | --- | --- | --- | --- | --- | --- | --- | --- | --- | --- | --- | --- | --- | --- | --- | --- | --- |
| CAL-12T | 0.511 | 0.797 | 0.492 | 0.382 | 0.105 | 0.979 | 0.952 | 0.645 | 0.268 | 0.164 | 0.552 | 0.585 | 0.586 | 0.25 | 0.114 | 0.445 | 0.495 | 0.426 | 0.176 | 0.0895 |
| LCLC-103H | 0.944 | 1.03 | 1.02 | 1.03 | 1.03 | 0.997 | 1.19 | 1.08 | 0.877 | 0.675 | 0.361 | 0.32 | 0.299 | 0.178 | 0.135 | 0.432 | 0.356 | 0.472 | 0.517 | 0.446 |
| NCI-H3122 | 0.274 | 0.28 | 0.288 | 0.272 | 0.274 | 0.92 | 0.924 | 1.07 | 1.02 | 0.542 | 0.391 | 0.368 | 0.404 | 0.121 | 0.105 | 0.185 | 0.185 | 0.277 | 0.224 | 0.179 |
| PC-14 | 0.838 | 0.863 | 0.811 | 0.9 | 0.54 | 0.748 | 0.947 | 0.839 | 0.488 | 0.0557 | 0.434 | 0.487 | 0.616 | 0.183 | 0.061 | 0.453 | 0.489 | 0.411 | 0.0534 | 0.055 |
| BEN | 0.897 | 0.841 | 0.853 | 0.75 | 0.817 | 0.854 | 0.992 | 0.831 | 0.523 | 0.197 | 0.258 | 0.266 | 0.264 | 0.259 | 0.174 | 0.467 | 0.477 | 0.429 | 0.462 | 0.44 |
| EPLC-272H | 0.873 | 0.682 | 0.803 | 0.941 | 0.946 | 0.952 | 0.914 | 0.956 | 0.531 | 0.279 | 0.353 | 0.245 | 0.35 | 0.109 | 0.0723 | 0.323 | 0.313 | 0.477 | 0.266 | 0.282 |
| ChaGo-K-1 | 1.26 | 0.996 | – | 1.15 | 1.02 | 0.994 | 1.2 | 1.15 | 0.285 | 0.241 | 0.416 | 0.455 | 0.45 | 0.462 | 0.153 | 0.912 | 0.925 | 0.91 | 0.903 | 0.99 |
